Results as given in patent US6399542B1, “Alkoxyimino-substituted bicyclic compounds compositions containing the same and method of making such compounds” (Agro-Kanesho Co., Ltd., priority 1997, dated 2002).
Where two headings read alike, the source gives them in different places.

Legend:
Puccinia recondite = assay: Penetration and translocation in wheat leaves (covered leaf tip, brown rust); type: in vivo; conditions: conc. of active ingredient 100 ppm
Erysiphe graminis = assay: Effects on Barley powdery mildew (preventive spray test); type: in vivo; conditions: lesions counted seven days after inoculation
Puccinia recondita = assay: Effect on Wheat brown rust (preventive spray test); type: in vivo; conditions: 7 days after inoculation
[1] = tested on: Psecidoperonospora cubensis; assay: Effect on Cucumber downy mildew (preventive spray test); type: in vivo; conditions: 7 days after inoculation
Pyricularia oryzae = type: in vivo; conditions: Rice blast, 7 days after inoculation
Rhizoctonia solani = assay: Effect on Rice sheath blight (preventive spray test); conditions: 10 days after inoculation
Experimental: An emulsion of a compound of the present invention prepared in Preparation Example 2 was diluted with water and uniformly sprayed on 5 rice plant seedlings (variety: Koshihikari) in 4.5-leaf stage in each plastic pot having a diameter of 6 cm, with a spray gun. One day after the spraying, the seedlings were bundled at the second sheath with a string. Colonies of Rhizoctonia solani previously cultured in PSA culture medium were bored with a cork borer to obtain pieces having a diameter of 4 mm. The piece was put in the bundle, and kept in a high-humidity room at 25° C. until the examination. Ten days after the inoculation, the degree of the disease was examined, and the preventive rate (effect of inhibiting the disease) was calculated on the basis of the following standard:
Preventive rate=[1-D′/C′]×100
C′: Severity in untreated section
D′: Severity in treated section.

Phytophthora infestans = type: in vivo; conditions: Tomato late blight, 5 days after inoculation
Chochliobolus miyabeanus = assay: Effect on Rice brown spot (preventive spray test); type: in vivo; conditions: 7 days after inoculation
Botrytis cinerea = assay: Effect on Cucumber gray mold (cotyledon paper disc test); type: in vivo; conditions: 3 days after inoculation
[2] = conc. of active ingredient 20 ppm
[3] = conc. of active ingredient 100 ppm
[4] = conc. of active ingredient 4 ppm

Row | Compound | Preventive rate (%) (Erysiphe graminis; [2]) | Preventive rate (%) (Erysiphe graminis; [3]) | Preventive rate (%) (Puccinia recondita; [4]) | Preventive rate (%) (Puccinia recondita; [2]) | Preventive rate (%) (Puccinia recondita; [3]) | Preventive rate (%) [1, 4] | Preventive rate (%) [1, 2] | Preventive rate (%) [1, 3] | Preventive rate (%) (Rhizoctonia solani; [2]) | Preventive rate (%) (Rhizoctonia solani; [3]) | Preventive rate (%) (Erysiphe graminis; [4]) | Preventive rate (%) (Phytophthora infestans; [2]) | Preventive rate (%) (Phytophthora infestans; [3]) | Preventive rate (%) (Chochliobolus miyabeanus; [2]) | Preventive rate (%) (Chochliobolus miyabeanus; [3]) | Preventive rate (%) (Botrytis cinerea; [2]) | Preventive rate (%) (Botrytis cinerea; [3]) | further results
1 | CON=C(C(=O)OC)c1ccccc1COc1ccc2c(c1C)OC(C)CC2=NOC (racemic) [d-10] | – | – | – | – | – | – | – | – | – | – | – | – | – | – | – | – | – | Number of lesions formed within the mark to the tip (Puccinia recondite): 0; Preventive rate (%) (Puccinia recondite): 100%; Rate of the translocation perfect preventive conc. (%) (Puccinia recondite): 100%
2 | CNC(=O)C(=NOC)c1ccccc1COc1ccc2c(c1C)OC(C)CC2=NOC (racemic) [d-11] | 99% | 99% | 100% | 100% | 100% | 93% | 96% | 100% | 75% | 96% | – | – | – | – | – | – | – | Preventive rate (%) (Pyricularia oryzae; [4]): 68%; Preventive rate (%) (Pyricularia oryzae; [2]): 78%; Preventive rate (%) (Pyricularia oryzae; [3]): 95%
3 | COC=C(C(=O)OC)c1ccccc1COc1ccc2c(c1C)OCC2=NOC [a-13] | 100% | 100% | – | – | – | – | 96% | 100% | 97% | 97% | 100% | 100% | 100% | 88% | 96% | 96% | 100% | –
4 | CCON=C1COc2c1ccc(OCc1ccccc1/C(=N\OC)C(=O)OC)c2C [a-35] | 100% | 100% | – | – | – | – | – | – | 80% | 84% | 98% | – | – | – | – | – | – | –
5 | C=CCON=C1COc2c1ccc(OCc1ccccc1/C(=N\OC)C(=O)OC)c2C [a-59] | 92% | 100% | 90% | 98% | 100% | – | – | – | 60% | 72% | – | – | – | – | – | 73% | 76% | –
6 | CO/N=C(/C(=O)OC)c1ccccc1COc1ccc2c(c1C)OCC2=NOC/C=C/Cl [a-61] | 100% | 100% | 91% | 100% | 100% | – | – | – | 60% | 96% | 99% | 89% | 91% | 72% | 91% | 91% | 85% | Preventive rate (%) (Chochliobolus miyabeanus; [4]): 49%
7 | CNC(=O)/C(=N/OC)c1ccccc1COc1ccc2c(c1C)OCC2=NOC/C=C/Cl [a-62] | 100% | 100% | 100% | 100% | 100% | 94% | 100% | 100% | 91% | 98% | 98% | 97% | 98% | 83% | 88% | 96% | 100% | –
8 | C#CCON=C1COc2c1ccc(OCc1ccccc1/C(=N\OC)C(=O)OC)c2C [a-70] | 100% | 100% | 99% | 100% | 100% | – | 88% | 91% | 80% | 90% | – | 95% | 95% | – | – | 53% | 85% | –
9 | C#CCON=C1COc2c1ccc(OCc1ccccc1/C(=N\OC)C(=O)NC)c2C [a-71] | 100% | 100% | 100% | 100% | 100% | 100% | 100% | 100% | – | – | – | – | – | – | – | 100% | 100% | Preventive rate (%) (Pyricularia oryzae; [2]): 89%; Preventive rate (%) (Pyricularia oryzae; [3]): 91%
